Measurements taken from PubChem BioAssay AID1963983 (Molecular Pharmacology Branch, DTP, NCI, 2024).

Tested on: 186277-243-T-J2-PDC multi-cell spheroid viability
Assay: Anticancer human tumor 186277-243-T-J2-PDC patient-derived colon adenocarcinoma cell line growth inhibition [PI3K]
Conditions: for IC50: curve of first compound; for viability, T/C: stronger effect = lower value
Source text: Combinatorial screen of targeted agents with the PI3K inhibitors inavolisib, alpelisib, duvelisib, and copanlisib in multi-cell type tumor spheroids
A high-throughput screen of multi-cell type tumor spheroids was designed to identify active combinations of targeted small molecules and PI3K pathway inhibitors. Complex spheroids include a stromal component modeled by human endothelial cells (HUVEC) and fibroblasts modeled by human mesenchymal stem cells (MSCs). The concentration ranges selected for each drug and investigational agent were based upon clinically achievable concentrations if the clinical Cmax of the agent was known.
Compounds. The drugs and investigational agents: inavolisib (NSC800729), alpelisib (NSC765974), duvelisib (NSC772469), copanlisib (NSC816437), ipatasertib (NSC767898), afuresertib (NSC778305), talazoparib (NSC767125), sapanisertib (NSC764658), selumetinib (NSC741078), tovorafenib (DAY101, NSC766906), vemurafenib (NSC761431), ravoxertinib (NSC781343), sotorasib (NSC818433), MRTX1133 (NSC 836407), abemaciclib (NSC 768073), palbociclib (NSC758247), venetoclax (NSC 766270), SY5609 (NSC837396), enzalutamide (NSC755605), and darolutamide (NSC825331), were obtained from the National Cancer Institute (NCI) Developmental Therapeutics Program Chemical Repository. The FDA-approved anticancer drug set is available from the NCI Developmental Therapeutics Program. […] The stock solutions were prepared in dimethyl sulfoxide (DMSO, Sigma-Aldrich, St. Louis, MO, cat. D2650) at 800-fold the tested concentration and stored at -70 degrees C prior to their use. All drugs and investigational agents were tested over a range starting from a high concentration at or near the clinical Cmax and decreasing in half-log increments. If the clinical Cmax for an agent had not been determined, the highest concentration tested was 10 microM.
Cell Culture. All cells were maintained in an incubator at 37 degrees C and 5% CO2 with 95% humidity. The PDC lines were cultured according to standard operating procedures established by the NCI PDMR (https://pdmr.cancer.gov/sops/default.htm). All PDCs were thawed and cultured in Matrigel-coated flasks prepared with a working solution of 1X Ham's F-12 nutrient mix, without supplementation (Invitrogen, Waltham, MA, cat. 11765054), 100 U/mL penicillin-streptomycin (Invitrogen, cat. 15140122), and 2.5% Matrigel (Corning Inc., Corning, NY, cat. 354248) for the first three passages. The 354836-022-R-J1-PDC, 475296-252-R-J1-PDC, and 997726-040-R-J2-PDC lines were cultured in 6A media, which includes advanced DMEM/F-12 (Thermo Fisher Scientific, cat. 12634028), 10 mM HEPES (Thermo Fisher Scientific, cat. 15630080), 1X GlutaMAX supplement (Thermo Fisher Scientific, cat. 35050061), 0.1 mg/mL primocin (InvivoGen, San Diego, CA, cat. ant-pm-2), 10% defined fetal bovine serum, heat inactivated (HyClone Laboratories Inc., Logan, UT, cat. SH30070.03HI), 50% L-WRN conditioned media (ATCC, cat. CRL-3276), 1.25 mM N-Acetyl-L-cysteine (Sigma-Aldrich, cat. A9165), 10 mM nicotinamide (Sigma-Aldrich, cat. N0636), 1X B-27 supplement (Thermo Fisher Scientific, cat. 17504044), 1X N-2 supplement (Thermo Fisher Scientific, cat. 17502048), and 10 microM Y-27632 dihydrochloride (Tocris Bioscience, Bristol, United Kingdom, cat. 1254). The 624824-186-R-J2-PDC line was cultured in 6C/Colon 1B media, which includes all 6A media components plus 50 ng/mL human EGF recombinant protein (Thermo Fisher Scientific, cat. PHG0311). […]
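Further: spheroids exposed to compounds for seven days before viability reading.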
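Wherever viability, T/C is given: 100% = DMSO vehicle control viability.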

CC(C)n1nc(-c2ccc3oc(N)nc3c2)c2c(N)ncnc21 + CC(Nc1ncnc2nc[nH]c12)c1cc2cccc(Cl)c2c(=O)n1-c1ccccc1
IC50 (second compound 0.0316 µM): 63.4 nM | IC50 (second compound 0.1 µM): 59.2 nM | IC50 (second compound 0.316 µM): 61.7 nM | IC50 (second compound 1 µM): 56.1 nM | IC50 (second compound 3.16 µM): 47.8 nM | IC50 (second compound 10 µM): 47.2 nM | viability, T/C (second compound 0.0316 µM, first compound 0.000316 µM): 86.4% | viability, T/C (second compound 0.0316 µM, first compound 0.001 µM): 96% | viability, T/C (second compound 0.0316 µM, first compound 0.00316 µM): 108% | viability, T/C (second compound 0.0316 µM, first compound 0.01 µM): 90.2% | viability, T/C (second compound 0.0316 µM, first compound 0.0316 µM): 81.5% | viability, T/C (second compound 0.0316 µM, first compound 0.1 µM): 29.2% | viability, T/C (second compound 0.1 µM, first compound 0.000316 µM): 112% | viability, T/C (second compound 0.1 µM, first compound 0.001 µM): 101% | viability, T/C (second compound 0.1 µM, first compound 0.00316 µM): 96.7% | viability, T/C (second compound 0.1 µM, first compound 0.01 µM): 97.1% | viability, T/C (second compound 0.1 µM, first compound 0.0316 µM): 80.3% | viability, T/C (second compound 0.1 µM, first compound 0.1 µM): 25.3% | viability, T/C (second compound 0.316 µM, first compound 0.000316 µM): 105% | viability, T/C (second compound 0.316 µM, first compound 0.001 µM): 103% | viability, T/C (second compound 0.316 µM, first compound 0.00316 µM): 89.1% | viability, T/C (second compound 0.316 µM, first compound 0.01 µM): 103% | viability, T/C (second compound 0.316 µM, first compound 0.0316 µM): 79.6% | viability, T/C (second compound 0.316 µM, first compound 0.1 µM): 28.6% | viability, T/C (second compound 1 µM, first compound 0.000316 µM): 96.7% | viability, T/C (second compound 1 µM, first compound 0.001 µM): 108% | viability, T/C (second compound 1 µM, first compound 0.00316 µM): 102% | viability, T/C (second compound 1 µM, first compound 0.01 µM): 96.3% | viability, T/C (second compound 1 µM, first compound 0.0316 µM): 72.5% | viability, T/C (second compound 1 µM, first compound 0.1 µM): 27.4% | viability, T/C (second compound 3.16 µM, first compound 0.000316 µM): 95% | viability, T/C (second compound 3.16 µM, first compound 0.001 µM): 90.8% | viability, T/C (second compound 3.16 µM, first compound 0.00316 µM): 95.4% | viability, T/C (second compound 3.16 µM, first compound 0.01 µM): 92.2% | viability, T/C (second compound 3.16 µM, first compound 0.0316 µM): 64.9% | viability, T/C (second compound 3.16 µM, first compound 0.1 µM): 23.5% | viability, T/C (second compound 10 µM, first compound 0.000316 µM): 89.7% | viability, T/C (second compound 10 µM, first compound 0.001 µM): 94.5% | viability, T/C (second compound 10 µM, first compound 0.00316 µM): 78% | viability, T/C (second compound 10 µM, first compound 0.01 µM): 80.5% | viability, T/C (second compound 10 µM, first compound 0.0316 µM): 69.7% | viability, T/C (second compound 10 µM, first compound 0.1 µM): 17.6%

Cn1cnc2c(F)c(Nc3ccc(Br)cc3Cl)c(C(=O)NOCCO)cc21 + Cc1nc(NC(=O)N2CCCC2C(N)=O)sc1-c1ccnc(C(C)(C)C(F)(F)F)c1
IC50 (second compound 0.0316 µM): 117 nM | IC50 (second compound 0.1 µM): 66.7 nM | IC50 (second compound 0.316 µM): 34.1 nM | IC50 (second compound 1 µM): < 9.49 nM | IC50 (second compound 3.16 µM): < 9.49 nM | IC50 (second compound 10 µM): < 9.49 nM | viability, T/C (second compound 0.0316 µM, first compound 0.00949 µM): 107% | viability, T/C (second compound 0.0316 µM, first compound 0.03 µM): 80.3% | viability, T/C (second compound 0.0316 µM, first compound 0.0949 µM): 52.4% | viability, T/C (second compound 0.0316 µM, first compound 0.3 µM): 34.5% | viability, T/C (second compound 0.0316 µM, first compound 0.949 µM): 16.1% | viability, T/C (second compound 0.0316 µM, first compound 3 µM): 6.83% | viability, T/C (second compound 0.1 µM, first compound 0.00949 µM): 100% | viability, T/C (second compound 0.1 µM, first compound 0.03 µM): 67.8% | viability, T/C (second compound 0.1 µM, first compound 0.0949 µM): 42.1% | viability, T/C (second compound 0.1 µM, first compound 0.3 µM): 25.4% | viability, T/C (second compound 0.1 µM, first compound 0.949 µM): 13% | viability, T/C (second compound 0.1 µM, first compound 3 µM): 9.02% | viability, T/C (second compound 0.316 µM, first compound 0.00949 µM): 76.8% | viability, T/C (second compound 0.316 µM, first compound 0.03 µM): 53.5% | viability, T/C (second compound 0.316 µM, first compound 0.0949 µM): 28.9% | viability, T/C (second compound 0.316 µM, first compound 0.3 µM): 18.5% | viability, T/C (second compound 0.316 µM, first compound 0.949 µM): 8.47% | viability, T/C (second compound 0.316 µM, first compound 3 µM): 3.53% | viability, T/C (second compound 1 µM, first compound 0.00949 µM): 48.1% | viability, T/C (second compound 1 µM, first compound 0.03 µM): 28.6% | viability, T/C (second compound 1 µM, first compound 0.0949 µM): 16.6% | viability, T/C (second compound 1 µM, first compound 0.3 µM): 5.87% | viability, T/C (second compound 1 µM, first compound 0.949 µM): 4.04% | viability, T/C (second compound 1 µM, first compound 3 µM): 1.48% | viability, T/C (second compound 3.16 µM, first compound 0.00949 µM): 23% | viability, T/C (second compound 3.16 µM, first compound 0.03 µM): 10.6% | viability, T/C (second compound 3.16 µM, first compound 0.0949 µM): 5.72% | viability, T/C (second compound 3.16 µM, first compound 0.3 µM): 3.73% | viability, T/C (second compound 3.16 µM, first compound 0.949 µM): 2.72% | viability, T/C (second compound 3.16 µM, first compound 3 µM): 0.62% | viability, T/C (second compound 10 µM, first compound 0.00949 µM): 3.43% | viability, T/C (second compound 10 µM, first compound 0.03 µM): 3.24% | viability, T/C (second compound 10 µM, first compound 0.0949 µM): 1.7% | viability, T/C (second compound 10 µM, first compound 0.3 µM): 2.06% | viability, T/C (second compound 10 µM, first compound 0.949 µM): 1.21% | viability, T/C (second compound 10 µM, first compound 3 µM): 0.89%
